Results on 36 compounds are retold here after PMC8286840, “Identifying SARS-CoV-2 antiviral compounds by screening for small molecule inhibitors of Nsp3 papain-like protease” (Biochemical Journal, 2021).

SMILES strings stand for the structures. Structures can show the parent of a compound that is named as a salt. Where two headings read alike, the source gives them in different places.

For assay [1], the target named is T1, SARS-CoV-2 PLpro (nsp3 1564–1878) (Severe acute respiratory syndrome coronavirus 2, UniProt P0DTD1). As to the kind of experiment: biochemical. The note with it: low concentration screen, read-out: % of control remaining. Further details: FRET-quenched peptide (Pro3) cleavage by PLpro, 10 min pre-incubation, slope over 20 min, normalised to no-compound control.

Assay [2] deals with T1, SARS-CoV-2 PLpro (nsp3 1564–1878). Nature of the assay: biochemical. More on the design: FRET-quenched peptide (Pro3) cleavage by PLpro, 10 min pre-incubation, slope over 20 min, normalised to no-compound control. The note with it: high concentration screen, read-out: % of control remaining.

As to `c1ccc2c3c([nH]c2c1)[C@H]1[C@@H]2CC[C@@H]([C@@H]4CCCN[C@@H]42)N1CC3`, in assay [1] (Well no.=3163), the remaining activity at 1.25 µM was 105%. Moreover, in assay [2] (Well no.=3163), the remaining activity at 3.75 µM was determined as 103%.

Consider `CC[C@H]1CN2CCc3cc(OC)c(OC)cc3[C@@H]2C[C@@H]1C[C@H]1NCCc2cc(OC)c(OC)cc21`, for which, in assay [1] (Well no.=3424), the remaining activity at 1.25 µM came out at 92.3%. In assay [2] (Well no.=3424), the remaining activity at 3.75 µM came out at 98%.

Consider `COc1ccc2cc3[n+](cc2c1OC)CCc1cc2c(cc1-3)OCO2`, for which the remaining activity at 1.25 µM in assay [1] (Well no.=3515) was determined as 93.4%. Moreover, the remaining activity at 3.75 µM in assay [2] (Well no.=3515) came out at 92.9%.

As for `C[C@H]([C@H](O)CCC(C)(C)O)[C@H]1CC[C@@]2(O)C3=CC(=O)[C@@H]4C[C@@H](O)[C@@H](O)C[C@]4(C)[C@H]3CC[C@]12C`, in assay [1] (Well no.=3603), the remaining activity at 1.25 µM was found to be 101%. Besides, the remaining activity at 3.75 µM in assay [2] (Well no.=3603) was 106%.

For `N#C/C(=C(/N)Sc1ccc(N)cc1)c1ccccc1C(F)(F)F`, in assay [1] (Well no.=2480), the remaining activity at 1.25 µM came to 98.7%. The remaining activity at 3.75 µM in assay [2] (Well no.=2480) worked out at 98.3%.

As to `C=C[C@]12CN(C)[C@@H]3[C@H]4CO[C@H](C[C@H]41)[C@]1(C(=O)Nc4ccccc41)[C@@H]32`, the remaining activity at 1.25 µM in assay [1] (Well no.=3460) stood at 98%. For the same compound, the remaining activity at 3.75 µM in assay [2] (Well no.=3460) worked out at 99%.

Consider `OC[C@@H]1[C@@H](O)[C@H](O)[C@H]2[C@@H](O)CCN21`, for which, in assay [1] (Well no.=3085), the remaining activity at 1.25 µM was determined as 104%. Moreover, the remaining activity at 3.75 µM in assay [2] (Well no.=3085) amounted to 105%.

`COc1cc2c3cc1Oc1c(OC)c(OC)cc4c1[C@@H](Cc1ccc(O)c(c1)Oc1ccc(cc1)C[C@@H]3N(C)CC2)N(C)CC4`: the remaining activity at 1.25 µM in assay [1] (Well no.=3633) is 103%. Also, the remaining activity at 3.75 µM in assay [2] (Well no.=3633) is 103%.

Take `N[C@]1(C(=O)O)CC[C@H](C(=O)O)C1`: the remaining activity at 1.25 µM in assay [1] (Well no.=64) was found to be 102%. The remaining activity at 3.75 µM in assay [2] (Well no.=64) came to 101%.

Regarding `CC[C@H]1CN2CCc3cc(OC)c(OC)cc3[C@@H]2C[C@@H]1C[C@H]1NCCc2cc(O)c(OC)cc21`, the remaining activity at 1.25 µM in assay [1] (Well no.=3501) was found to be 96.1%. For the same compound, the remaining activity at 3.75 µM in assay [2] (Well no.=3501) came to 88.7%.

With `CN1[C@@H](CC(=O)c2ccccc2)CCC[C@H]1C[C@H](O)c1ccccc1`, the remaining activity at 1.25 µM in assay [1] (Well no.=3438) is 97.9%. For the same compound, the remaining activity at 3.75 µM in assay [2] (Well no.=3438) turned out to be 97.7%.

As to `CC1(C)CCC2=C(O1)c1ccccc1C(=O)C2=O`, the remaining activity at 1.25 µM in assay [1] (Well no.=3375) worked out at 95.6%; in assay [1] (Well no.=3845), 96.1%. Besides, the remaining activity at 3.75 µM in assay [2] (Well no.=3375) was determined as 84.1%; in assay [2] (Well no.=3845), 91.8%.

For the compound `CC[C@H](CC[C@@H](C)[C@H]1CC[C@H]2[C@@H]3CC=C4C[C@@H](O)CC[C@]4(C)[C@H]3CC[C@]12C)C(C)C`, in assay [1] (Well no.=3416), the remaining activity at 1.25 µM turned out to be 93.1%. In addition, the remaining activity at 3.75 µM in assay [2] (Well no.=3416) came out at 96.8%.

Regarding `O=C(O)[C@H]1NCCC[C@H]1C(=O)O`, the remaining activity at 1.25 µM in assay [1] (Well no.=1161) stood at 106%. Besides, the remaining activity at 3.75 µM in assay [2] (Well no.=1161) was 106%.

On to `C[C@H]1CCC[C@H](O)CCCCCc2cc(O)cc(O)c2C(=O)O1`, for which, in assay [1] (Well no.=3340), the remaining activity at 1.25 µM turned out to be 91.6%. In addition, the remaining activity at 3.75 µM in assay [2] (Well no.=3340) was determined as 94%.

For the compound `C[n+]1cccc(C(=O)O)c1`, the remaining activity at 1.25 µM in assay [1] (Well no.=3390) turned out to be 94.5%. In assay [2] (Well no.=3390), the remaining activity at 3.75 µM was determined as 99.5%.

Regarding `COC(=O)[C@@H]1[C@H]2C[C@H]3c4[nH]c5ccccc5c4CCN3C[C@@H]2CC[C@@H]1O`, in assay [1] (Well no.=3378), the remaining activity at 1.25 µM amounted to 86.8%. The remaining activity at 3.75 µM in assay [2] (Well no.=1699) was found to be 103%; in assay [2] (Well no.=3378), 87.3%.

`Cc1cc(C(C)Nc2ccccc2)c2nc(N3CCOCC3)cc(=O)n2c1` (centres unmarked): in assay [1] (Well no.=2577), the remaining activity at 1.25 µM turned out to be 101%. The remaining activity at 3.75 µM in assay [2] (Well no.=2577) was determined as 101%.

In the case of `C[N+]1(C)CCC[C@H]1C(=O)O`, the remaining activity at 1.25 µM in assay [1] (Well no.=3118) was found to be 107%. The remaining activity at 3.75 µM in assay [2] (Well no.=3118) came out at 105%.

With `CCCN1CC[C@@H]2c3cc(O)ccc3CC[C@@H]21`, in assay [1] (Well no.=1044), the remaining activity at 1.25 µM was 98.9%. Further, the remaining activity at 3.75 µM in assay [2] (Well no.=1044) was 100%.

For `CC(C)=CC[C@@H](OC(=O)C=C(C)C)C1=CC(=O)c2c(O)ccc(O)c2C1=O`, in assay [1] (Well no.=3305), the remaining activity at 1.25 µM is 89.6%. In assay [2] (Well no.=3305), the remaining activity at 3.75 µM stood at 85.3%.

On to `COc1cc2ncnc(Nc3ccc(F)c(Cl)c3)c2cc1OCCCN1CCOCC1` [Iressa - N-(3-chloro-4-fluoro-phenyl)-7-methoxy-6-(3-morpholin-4-ylpropoxy)quinazolin-4-amine], for which the remaining activity at 1.25 µM in assay [1] (Well no.=2670) came out at 97.6%.

With `CC1(C)C(=O)N(CCN2CCC(C(=O)c3ccc(F)cc3)CC2)c2ccccc21` [LY-310,762 hydrochloride], the remaining activity at 1.25 µM in assay [1] (Well no.=833) amounted to 99.6%.

In the case of `CC[C@H](C)C(=O)O[C@H]1C[C@@H](C)C=C2C=C[C@H](C)[C@H](CC[C@@H]3C[C@@H](O)CC(=O)O3)[C@H]21` [Lovastatin], the remaining activity at 1.25 µM in assay [1] (Well no.=1830) worked out at 99.3%.

In the case of `CCN(CC)CCCC(C)Nc1nc(C)cc(Nc2ccc3nc(C)cc(N)c3c2)n1` (centres unmarked) [NSC 23766 (trihydrochloride)], the remaining activity at 1.25 µM in assay [1] (Well no.=7865) stood at 98.1%.

In the case of `Nc1[nH]nc2nc3ccccc3nc12` [NSC 693868 - 1H-Pyrazolo[3,4-b]quinoxalin-3-amine], the remaining activity at 1.25 µM in assay [1] (Well no.=2476) is 95.5%.

For `CN(C)C(=O)Oc1cccc([N+](C)(C)C)c1` [Neostigmine bromide], the remaining activity at 1.25 µM in assay [1] (Well no.=853) came to 105%.

As to `O=C1CCCN1CC#CCN1CCCC1` [Oxotremorine sesquifumarate salt], in assay [1] (Well no.=946), the remaining activity at 1.25 µM stood at 103%.

Regarding `COc1cc2nc(N3CCN(C(=O)c4ccco4)CC3)nc(N)c2cc1OC` [Prazosin hydrochloride], the remaining activity at 1.25 µM in assay [1] (Well no.=1349) is 98.8%.

In the case of `CN(C)CCCN1c2ccccc2Sc2ccccc21` [Promazine (hydrochloride)], the remaining activity at 1.25 µM in assay [1] (Well no.=6711) came to 103%.

As to `CC(CN1c2ccccc2Sc2ccccc21)N(C)C` (centres unmarked) [Promethazine (hydrochloride)], the remaining activity at 1.25 µM in assay [1] (Well no.=6811) was determined as 99.3%.

For `CCCCC[C@H](O)/C=C/[C@@H]1[C@@H](C/C=C\CCCC(=O)O)[C@@H](O)C[C@H]1O` [Prostaglandin F2a], the remaining activity at 1.25 µM in assay [1] (Well no.=3094) was 107%.

For the compound `Cc1cc2c(cc1Cl)N(C(=O)Nc1ccc(Oc3cccnc3C)nc1)CC2` [SB 242084], the remaining activity at 1.25 µM in assay [1] (Well no.=7137) is 103%.

Take `CC1(C)[C@H](C(=O)O)N2C(=O)C[C@H]2S1(=O)=O` [Sulbactam]: the remaining activity at 1.25 µM worked out at 106% in assay [1] (Well no.=2023) and 101% in assay [1] (Well no.=7450).

Turning to `CC(=O)O[C@H]1C(=O)[C@@]2(C)[C@H]([C@H](OC(=O)c3ccccc3)[C@]3(O)C[C@H](OC(=O)[C@H](O)[C@@H](NC(=O)c4ccccc4)c4ccccc4)C(C)=C1C3(C)C)[C@]1(OC(C)=O)CO[C@@H]1C[C@@H]2O` [Taxol], the results for the remaining activity at 1.25 µM in assay [1] (Well no.=1180), in assay [1] (Well no.=1999) and in assay [1] (Well no.=3180) were 92.6%, 103% and 106%, respectively.

Regarding `Cn1c(=O)c2nc[nH]c2n(C)c1=O` [Theophylline], the values for the remaining activity at 1.25 µM in assay [1] (Well no.=1235), in assay [1] (Well no.=6249) and in assay [1] (Well no.=8277) were 97.1%, 110% and 98.3%, respectively.
